Several values for one entry are separate records, joined by “and”; a condition that tells them apart may be missing. Equal values may be shown once. Read-outs that look alike come from different tables or passages of the source.
Legend:
[1] = Single-dose pharmacokinetics in rats (p.o. and i.v.); type: in vivo, rat; design: plasma conc: unit not given here
MRP2 = MRP2 (Homo sapiens, UniProt Q92887); test: Vesicular transport inhibition assay, MRP2; settings: for Accumulation (counts per minute; CPM) with AMP / Accumulation (counts per minute; CPM) with ATP: MRP2;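 note: membrane vesicles with probe substrate plus 2 mM glutathione, incubated with 4 mM ATP or AMP (AMP as background control), vesicle-retained substrate measured by liquid scintillation counting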;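 for Accumulation (counts per minute; CPM) with AMP: ATP 4 mM vs AMP background separates transporter uptake from diffusion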;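 for Accumulation (counts per minute; CPM) with ATP: ATP 4 mM vs AMP background separates transporter uptake from diffusion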
Description: (§1) In the vesicular transport inhibition assay (for BSEP, MRP) compounds were incubated with membrane vesicle preparations and the probe substrate. Incubations were carried out in the presence of 4 mM ATP or AMP to distinguish between transporter-mediated uptake and passive diffusion into the vesicles. For MRP2 and MRP3, reactions were carried out in the presence of 2 mM glutathione. Compounds were added to the reaction mixture in 0.75 μL of solvent (1% of the final incubation volume). […] Reactions were initiated by the addition of 25 μL of 12 mM MgATP (or 12 mM AMP in assay buffer as a background control) and preincubated separately. Reactions were quenched by the addition of 200 μL of ice-cold washing buffer and immediate filtration via glass fiber filters mounted on a 96-well plate (filter plate). The filters were washed (5 × 200 μL of ice-cold washing buffer), dried, and the amount of substrate inside the filtered vesicles was determined by liquid scintillation counting.

MRP4 = biological target: T1, MRP4 (Homo sapiens, UniProt O15439); test: Vesicular transport inhibition assay, MRP4; settings: for Accumulation (counts per minute; CPM) with AMP / Accumulation (counts per minute; CPM) with ATP: MRP4;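 note: membrane vesicles with MRP4 incubated with compound and probe substrate plus 4 mM ATP, or AMP as passive-diffusion background, vesicular substrate uptake read by liquid scintillation counting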;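 for Accumulation (counts per minute; CPM) with AMP: ATP 4 mM vs AMP background separates transporter uptake from diffusion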;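 for Accumulation (counts per minute; CPM) with ATP: ATP 4 mM vs AMP background separates transporter uptake from diffusion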
T1 sequence (O15439 1-1325): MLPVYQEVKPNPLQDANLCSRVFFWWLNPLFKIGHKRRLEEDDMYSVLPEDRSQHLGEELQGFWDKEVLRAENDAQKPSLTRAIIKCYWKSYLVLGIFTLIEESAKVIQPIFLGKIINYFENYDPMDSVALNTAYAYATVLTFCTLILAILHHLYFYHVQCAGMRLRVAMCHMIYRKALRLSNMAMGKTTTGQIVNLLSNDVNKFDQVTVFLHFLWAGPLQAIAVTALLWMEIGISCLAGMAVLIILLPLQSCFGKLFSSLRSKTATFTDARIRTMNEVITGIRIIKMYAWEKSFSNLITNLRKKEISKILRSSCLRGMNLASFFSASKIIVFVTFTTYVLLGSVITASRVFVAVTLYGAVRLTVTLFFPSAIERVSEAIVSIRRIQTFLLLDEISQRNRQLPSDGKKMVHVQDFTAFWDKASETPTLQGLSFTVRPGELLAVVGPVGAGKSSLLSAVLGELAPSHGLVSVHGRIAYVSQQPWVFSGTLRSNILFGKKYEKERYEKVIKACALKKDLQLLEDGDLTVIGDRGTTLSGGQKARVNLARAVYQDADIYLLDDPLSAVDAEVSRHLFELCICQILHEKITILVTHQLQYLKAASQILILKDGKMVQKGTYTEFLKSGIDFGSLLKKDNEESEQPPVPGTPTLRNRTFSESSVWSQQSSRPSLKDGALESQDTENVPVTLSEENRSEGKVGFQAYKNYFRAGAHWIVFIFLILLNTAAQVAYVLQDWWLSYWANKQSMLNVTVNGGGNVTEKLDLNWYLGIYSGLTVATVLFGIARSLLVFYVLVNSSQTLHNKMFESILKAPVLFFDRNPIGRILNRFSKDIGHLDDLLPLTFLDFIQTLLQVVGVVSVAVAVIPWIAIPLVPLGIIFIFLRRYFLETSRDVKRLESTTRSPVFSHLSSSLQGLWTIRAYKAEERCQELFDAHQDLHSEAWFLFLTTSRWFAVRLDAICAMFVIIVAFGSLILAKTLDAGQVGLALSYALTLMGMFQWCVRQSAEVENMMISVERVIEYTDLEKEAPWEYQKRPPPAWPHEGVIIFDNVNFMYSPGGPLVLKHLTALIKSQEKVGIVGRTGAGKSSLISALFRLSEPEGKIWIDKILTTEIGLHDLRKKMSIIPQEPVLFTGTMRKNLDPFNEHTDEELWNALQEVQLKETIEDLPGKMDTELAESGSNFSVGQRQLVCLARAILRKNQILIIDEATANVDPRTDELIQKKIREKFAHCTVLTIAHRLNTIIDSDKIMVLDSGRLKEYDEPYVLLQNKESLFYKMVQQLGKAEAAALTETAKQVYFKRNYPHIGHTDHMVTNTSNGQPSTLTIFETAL
Description: as §1

OATP1B3 = biological target: T2, OATP1B3 (Homo sapiens, UniProt Q9NPD5); test: Uptake transporter inhibition assay, OATP1B3; settings: human, transformed HEK cells expressing OATP1B3, pH 7.4
T2 sequence (Q9NPD5 1-702): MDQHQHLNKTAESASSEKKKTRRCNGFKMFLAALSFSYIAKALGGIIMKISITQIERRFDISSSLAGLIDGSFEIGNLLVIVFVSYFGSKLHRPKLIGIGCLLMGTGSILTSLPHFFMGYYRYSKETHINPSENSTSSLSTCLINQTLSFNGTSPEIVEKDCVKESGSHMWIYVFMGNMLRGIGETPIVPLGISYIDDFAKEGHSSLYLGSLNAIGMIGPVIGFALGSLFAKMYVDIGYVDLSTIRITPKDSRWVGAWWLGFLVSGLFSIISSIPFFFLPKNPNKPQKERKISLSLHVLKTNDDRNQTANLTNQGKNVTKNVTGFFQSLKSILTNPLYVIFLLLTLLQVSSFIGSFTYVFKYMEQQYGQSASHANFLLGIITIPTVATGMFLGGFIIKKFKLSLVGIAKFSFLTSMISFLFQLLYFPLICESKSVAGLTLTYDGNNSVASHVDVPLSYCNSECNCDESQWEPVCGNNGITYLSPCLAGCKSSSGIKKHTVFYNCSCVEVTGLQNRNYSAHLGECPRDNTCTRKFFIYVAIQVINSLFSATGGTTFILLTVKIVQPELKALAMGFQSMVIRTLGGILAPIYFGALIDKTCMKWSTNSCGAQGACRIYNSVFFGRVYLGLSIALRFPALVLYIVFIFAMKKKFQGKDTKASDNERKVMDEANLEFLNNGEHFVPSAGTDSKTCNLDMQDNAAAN
Description: For the uptake transporter inhibition assay, cells were washed twice with 100 μL of the appropriate buffer (HK, pH 7.4) for OATP1B1, followed by HBSS (pH 7.4) for (NTCP, OAT1, OAT2v1, OATP1A2, and OATP1B3). Uptake experiments were carried out at 37 ± 1°C in 50 μL of the respective buffer containing the probe substrate and the compound or solvent. […] After the experiment, cells were washed twice with 100 μL of cold appropriate buffer and lysed with 50 μL of 0.1 M NaOH. Radiolabeled probe substrate transport was determined by measuring an aliquot (35 μL) from each well for liquid scintillation counting.

[2] = rat, dose 200 mg/kg, Day 1, individual animals, 200 mg/kg
[3] = summary comparison CPL207280 vs TAK-875

Sequence of MRP2 (Q92887 whole entry, the tested form may be a part): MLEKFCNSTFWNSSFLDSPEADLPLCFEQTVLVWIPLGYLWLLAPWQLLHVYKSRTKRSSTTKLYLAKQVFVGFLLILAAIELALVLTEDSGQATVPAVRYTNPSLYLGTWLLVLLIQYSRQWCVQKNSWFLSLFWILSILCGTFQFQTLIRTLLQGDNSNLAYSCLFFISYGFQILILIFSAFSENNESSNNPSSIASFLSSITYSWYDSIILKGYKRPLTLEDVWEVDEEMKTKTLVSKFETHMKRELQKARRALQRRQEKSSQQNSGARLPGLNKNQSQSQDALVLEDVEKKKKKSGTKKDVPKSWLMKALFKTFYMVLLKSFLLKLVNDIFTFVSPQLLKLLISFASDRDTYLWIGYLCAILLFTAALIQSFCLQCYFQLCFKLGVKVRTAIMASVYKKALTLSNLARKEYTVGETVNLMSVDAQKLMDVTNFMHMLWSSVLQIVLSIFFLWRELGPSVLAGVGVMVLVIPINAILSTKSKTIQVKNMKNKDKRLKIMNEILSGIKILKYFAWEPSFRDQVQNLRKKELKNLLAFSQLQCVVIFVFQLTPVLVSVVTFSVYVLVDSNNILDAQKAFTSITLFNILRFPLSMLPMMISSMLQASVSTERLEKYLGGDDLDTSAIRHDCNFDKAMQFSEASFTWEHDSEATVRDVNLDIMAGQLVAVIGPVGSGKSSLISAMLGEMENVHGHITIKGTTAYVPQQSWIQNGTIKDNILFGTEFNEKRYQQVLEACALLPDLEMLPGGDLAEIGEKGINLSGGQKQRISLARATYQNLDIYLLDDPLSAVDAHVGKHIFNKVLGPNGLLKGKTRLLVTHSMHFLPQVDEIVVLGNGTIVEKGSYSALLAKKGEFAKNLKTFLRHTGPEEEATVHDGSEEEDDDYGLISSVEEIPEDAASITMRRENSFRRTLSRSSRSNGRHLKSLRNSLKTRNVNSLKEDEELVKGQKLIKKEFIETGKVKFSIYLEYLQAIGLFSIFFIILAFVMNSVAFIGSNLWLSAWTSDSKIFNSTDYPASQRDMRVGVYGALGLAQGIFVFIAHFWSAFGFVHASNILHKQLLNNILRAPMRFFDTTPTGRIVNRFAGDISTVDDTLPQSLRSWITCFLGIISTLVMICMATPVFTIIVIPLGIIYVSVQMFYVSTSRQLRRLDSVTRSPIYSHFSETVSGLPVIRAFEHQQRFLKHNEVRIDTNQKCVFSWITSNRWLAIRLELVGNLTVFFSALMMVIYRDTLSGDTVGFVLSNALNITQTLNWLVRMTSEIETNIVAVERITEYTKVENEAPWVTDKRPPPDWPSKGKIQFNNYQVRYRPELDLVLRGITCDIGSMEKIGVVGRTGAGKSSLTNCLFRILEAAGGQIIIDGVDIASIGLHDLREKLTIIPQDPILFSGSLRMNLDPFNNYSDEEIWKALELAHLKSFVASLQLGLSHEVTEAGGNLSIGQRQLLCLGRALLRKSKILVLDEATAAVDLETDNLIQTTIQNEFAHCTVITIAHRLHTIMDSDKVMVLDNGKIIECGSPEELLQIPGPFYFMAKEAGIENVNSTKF

## CC#C[C@@H](CC(=O)O)c1ccc(OCC(C)=C(C)C)cc1 [CPL207280]
[1]; Wistar Han, rat, plasma, oral, 200 mg/kg, rat, dose 200 mg/kg, Day 1, individual animals, read-out: exposure - AUC
  AUC: 1240 µg·h/mL
[1]; rat, 3 mg/kg i.v., 0.08 h, single animals, 3 mg/kg
  plasma conc: 18185.2 and 14086.9 and 17991
[1]; rat, 3 mg/kg i.v., 0.5 h, single animals, 3 mg/kg
  plasma conc: 13324.4 and 11131.5 and 13374.4
[1]; rat, 3 mg/kg i.v., 1 h, single animals, 3 mg/kg
  plasma conc: 9899.4 and 7427.8 and 10049.5
[1]; rat, 3 mg/kg i.v., 2 h, single animals, 3 mg/kg
  plasma conc: 3412.2 and 2931.7 and 2551.4
[1]; rat, 3 mg/kg i.v., 4 h, single animals, 3 mg/kg
  plasma conc: 1459.2 and 957.7 and 1370.6
[1]; rat, 3 mg/kg i.v., 7 h, single animals, 3 mg/kg
  plasma conc: 919.9 and 275.5 and 163.6 and 442.9
[1]; rat, 3 mg/kg i.v., 12 h, single animals, 3 mg/kg
  plasma conc: 109.4 and 40.7 and 9.1 and 38.7
[1]; rat, 3 mg/kg p.o., 0.5 h, single animals, 3 mg/kg
  plasma conc: 1251.2 and 962.3 and 1047.3 and 2942.9 and 2148.4
[1]; rat, 3 mg/kg p.o., 1 h, single animals, 3 mg/kg
  plasma conc: 1116.7 and 1016.5 and 1560.5 and 2895.7 and 1904.8
[1]; rat, 3 mg/kg p.o., 2 h, single animals, 3 mg/kg
  plasma conc: 850.9 and 932.5 and 1176.4 and 3463.8 and 1438.7
[1]; rat, 3 mg/kg p.o., 4 h, single animals, 3 mg/kg
  plasma conc: 878.1 and 1000.4 and 1366.6 and 4024.4 and 840.4
[1]; rat, 3 mg/kg p.o., 8 h, single animals, 3 mg/kg
  plasma conc: 569.6 and 2137.2 and 517.2 and 1993.4 and 909.2
[1]; rat, 3 mg/kg p.o., 12 h, single animals, 3 mg/kg
  plasma conc: 324.7 and 347.6 and 456.6 and 204.4 and 474.2
[1]; rat, 3 mg/kg p.o., 24 h, single animals, 3 mg/kg
  plasma conc: 48.1 and 66.5 and 10.8 and 7 and 230.9
[1]; [2]
  Cmax: 183679 ng/mL and 165539 ng/mL and 190632 ng/mL and 189701 ng/mL and 159390 ng/mL
  exposure - AUC: 1896 µg·h/mL and 1692 µg·h/mL and 1420 µg·h/mL and 1892 µg·h/mL and 1506 µg·h/mL
[1]; rat, plasma, 200 mg/kg, rat, dose 200 mg/kg, Day 1, individual animals, read-out: Cmax
  Cmax: 198000 ng/mL
[1]; rat, plasma, iv, 3 mg/kg, rat, 3 mg/kg i.v., 0.08 h, single animals, read-out: plasma conc
  concentration at 0.08 h: 19200 ng/mL
[1]; rat, plasma, iv, 3 mg/kg, rat, 3 mg/kg i.v., 0.5 h, single animals, read-out: plasma conc
  concentration at 0.5 h: 16300 ng/mL
[1]; rat, plasma, iv, 3 mg/kg, rat, 3 mg/kg i.v., 1 h, single animals, read-out: plasma conc
  concentration at 1 h: 10900 ng/mL
[1]; rat, plasma, iv, 3 mg/kg, rat, 3 mg/kg i.v., 2 h, single animals, read-out: plasma conc
  concentration at 2 h: 3720 ng/mL
[1]; rat, plasma, iv, 3 mg/kg, rat, 3 mg/kg i.v., 4 h, single animals, read-out: plasma conc
  concentration at 4 h: 1570 ng/mL
[1]; rat, plasma, iv, 3 mg/kg, rats, 3 mg/kg i.v.
  Tmax: 4.98 min
[1]; rat, plasma, iv, 3 mg/kg, rats, 3 mg/kg i.v., n = 5, read-out: Cmax
  Cmax: 17400 ± 2250 ng/mL
[1]; rat, plasma, iv, 3 mg/kg, rats, 3 mg/kg i.v., read-out: AUC
  AUC: 27.1 ± 1.62 µg·h/mL
[1]; rat, plasma, oral, rats, 3 mg/kg p.o. vs i.v., read-out: F (bioavailability)
  bioavailability: 63%
[1]; rat, plasma, po, 3 mg/kg, rats, 3 mg/kg p.o.
  Tmax: 60 min
[1]; rat, plasma, po, 3 mg/kg, rats, 3 mg/kg p.o., read-out: AUC
  AUC: 17.6 ± 4.08 µg·h/mL
[1]; rat, plasma, rats, 3 mg/kg
  Vd: 0.2 ± 0.01 L/kg
  k el: 0.000144 s⁻¹
[1]; rats, 3 mg/kg
  greater Kel than TAK-875: 2 x
[1]; [3]
  Bioavailability in rats: >
  Exposure in rat plasma for the same dose: ≥
MRP2; conc 0.10 µM
  Accumulation (counts per minute; CPM) with AMP: 198 CPM and 164 CPM
  Accumulation (counts per minute; CPM) with ATP: 2936 CPM and 2989 CPM
MRP2; conc 1.00 µM
  Accumulation (counts per minute; CPM) with AMP: 160 CPM and 140 CPM
  Accumulation (counts per minute; CPM) with ATP: 2976 CPM and 3333 CPM
MRP2; conc 3.00 µM
  Accumulation (counts per minute; CPM) with AMP: 225 CPM and 205 CPM
  Accumulation (counts per minute; CPM) with ATP: 3200 CPM and 3253 CPM
MRP2; conc 10.00 µM
  Accumulation (counts per minute; CPM) with AMP: 218 CPM and 206 CPM
  Accumulation (counts per minute; CPM) with ATP: 3353 CPM and 3206 CPM
MRP2; conc 30.00 µM
  Accumulation (counts per minute; CPM) with AMP: 203 CPM and 192 CPM
  Accumulation (counts per minute; CPM) with ATP: 3191 CPM and 3541 CPM
MRP2; conc 100.00 µM
  Accumulation (counts per minute; CPM) with AMP: 195 CPM and 185 CPM
  Accumulation (counts per minute; CPM) with ATP: 3680 CPM and 3660 CPM
MRP2; conc 300.00 µM
  Accumulation (counts per minute; CPM) with AMP: 129 CPM and 125 CPM
  Accumulation (counts per minute; CPM) with ATP: 3852 CPM and 4100 CPM
MRP2; vesicles, up to 300μM, n = 2
  MRP2 Estimated IC50 (95% CI of IC50): no affinity
MRP4
  IC50: 131 µM
  fold less inhibitory potency than TAK-875, MRP4: at least 10 fold
MRP4; conc 0.10 µM
  Accumulation (counts per minute; CPM) with AMP: 1154 CPM and 1110 CPM
  Accumulation (counts per minute; CPM) with ATP: 5335 CPM and 5537 CPM
MRP4; conc 1.00 µM
  Accumulation (counts per minute; CPM) with AMP: 1207 CPM and 1074 CPM
  Accumulation (counts per minute; CPM) with ATP: 5159 CPM and 5701 CPM
MRP4; conc 3.00 µM
  Accumulation (counts per minute; CPM) with AMP: 1157 CPM and 1113 CPM
  Accumulation (counts per minute; CPM) with ATP: 5157 CPM and 5321 CPM
MRP4; conc 10.00 µM
  Accumulation (counts per minute; CPM) with AMP: 1132 CPM and 1046 CPM
  Accumulation (counts per minute; CPM) with ATP: 4884 CPM and 5225 CPM
MRP4; conc 30.00 µM
  Accumulation (counts per minute; CPM) with AMP: 1054 CPM and 1003 CPM
  Accumulation (counts per minute; CPM) with ATP: 4460 CPM and 4110 CPM
MRP4; conc 100.00 µM
  Accumulation (counts per minute; CPM) with AMP: 1090 CPM and 1013 CPM
  Accumulation (counts per minute; CPM) with ATP: 3600 CPM and 3817 CPM
MRP4; conc 300.00 µM
  Accumulation (counts per minute; CPM) with AMP: 1018 CPM and 920 CPM
  Accumulation (counts per minute; CPM) with ATP: 2078 CPM and 2196 CPM
OATP1B3
  IC50: 42.9 µM
